Where a SMILES comes first, the peptide text is derived from it. The star is where a group is joined. Biotin = O=C1N[C@H]2[C@H](CS[C@H]2CCCCC(=O)*)N1

Assay [1] concerns the target T1, AR LBD (Pan troglodytes, UniProt O97775).
T1 construct: chimp AR LBD (residues 663–919—human numbering); GST (N, cleaved yes); made in house; host or cells: E. coli BL21 (DE3) STAR
T1 sequence (O97775 655-911 limits assumed): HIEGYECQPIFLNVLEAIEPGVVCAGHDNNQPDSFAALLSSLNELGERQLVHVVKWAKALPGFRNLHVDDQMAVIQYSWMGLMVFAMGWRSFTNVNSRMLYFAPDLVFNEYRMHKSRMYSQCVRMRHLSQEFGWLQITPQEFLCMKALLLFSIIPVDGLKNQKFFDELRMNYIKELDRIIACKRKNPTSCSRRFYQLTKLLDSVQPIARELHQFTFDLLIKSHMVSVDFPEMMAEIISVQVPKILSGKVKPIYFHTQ
Briefly: Surface plasmon resonance (Biacore 2000), peptide binding to AR LBD. Format: chimp (100% identity to the human form in protein sequence). To be noted: for ka1 × 10^-4: association rate, biotinylated peptide immobilised (approx. 250 RU), AR LBD 10, 5, 1 μM and 300 nM, SMRT2 signal subtracted, values are ka1 multiplied by 10^-4; for ka1 × 10^-4 / kd1 × 10^2: step 1 of two-state conformational change model; for ka1 × 10^-4 / Kd2 / kd1 × 10^2 / ka2 × 10^3 / kd2 × 10^3: HBS-P pH 7.4; for Kd2: dissociation constant of step 2, calculated from rate constants, two-state conformational change model; for kd1 × 10^2: dissociation rate, values are kd1 multiplied by 10^2; for ka2 × 10^3: forward rate, values are ka2 multiplied by 10^3; for ka2 × 10^3 / kd2 × 10^3: step 2 of two-state conformational change model; for kd2 × 10^3: reverse rate, values are kd2 multiplied by 10^3. The method, then:
(§1) Expression and purification of the AR LBD for crystallization were performed essentially as described ([Matias et al. 2000]). […] Induction was carried out with 30 μM IPTG at 17 °C for 16–18 h. E. coli cells were lysed in buffer (10 mM Tris, [pH 8.0], 150 mM NaCl, 10% glycerol, 1 mM TCEP, 0.2 mM PMSF) supplemented with 0.5 μg/ml lysozyme, 5 U/ml benzonase, 0.5% CHAPS, and 10 μM DHT. All buffers for further purification steps contained 1 μM DHT. Soluble cell lysate was adsorbed to Glutathione Sepharose 4 Fast Flow resin (Amersham Biosciences), washed with buffer containing 0.1% n-octyl β-glucoside, and eluted with 15 mM glutathione. After cleavage of the GST moiety with thrombin, final purification of the AR LBD was carried out using a HiTrap SP cation exchange column (Amersham Biosciences). Eluted AR LBD was dialyzed overnight at 4 °C against buffer containing 50 mM HEPES (pH 7.2), 10% glycerol, 0.2 mM TCEP, 20 μM DHT, 150 mM Li2SO4, and 0.1% n-octyl β-glucoside, then concentrated to greater than 4 mg/ml for crystallization.
Affinities of peptides to the AR LBD were determined with a Biacore (Piscataway, New Jersey, United States) 2000 instrument. A peptide derived from silencing mediator for RXR and TR 2 (SMRT2) served as a negative control. 1 mM peptide stock solutions in DMSO were diluted into HBS-P buffer (10 mM HEPES [pH 7.4], 150 mM NaCl, 0.005% Surfactant P20) to generate 10 μM working solutions. HBS-P buffer was flowed through the cells to achieve a stable baseline prior to immobilization of the biotinylated peptides. To achieve the binding of approximately 250 RU of peptides to individual cells, working solutions of peptides were diluted to 100 nM in HBS-P buffer. Unbound streptavidin sites were blocked by injection of a 1 mM biotin solution at a rate of 10 μl/min.
Purified AR LBD was diluted into HBS-P buffer to a concentration of 10 μM and injected into all four Flowcells using the Kinject protocol at a flow rate of 10 μl/min (contact time 360 s, dissociation time 360 s). Following the dissociation phase, the surface of the chip was regenerated to remove residual AR LBD by QuickInject of buffer containing 10 mM HEPES and 50% ethylene glycol (pH 11). Following the establishment of a stable baseline, the same procedure was repeated using a series of AR LBD dilutions (5 μM, 1 μM, and 300 nM) in an iterative manner. Analysis of the data was performed using BIAevaluation 3.0 software (Biacore). The SMRT2 signals were subtracted as background from the three remaining peptide signals. Data were best fit using the two-state conformational change model ([Warnmark et al. 2001], [2002]).

For assay [2], the target named is T1, AR LBD. Briefly: X-ray crystal structures of AR LBD-peptide complexes, buried surface area. Format: chimp (100% identity to the human form in protein sequence). The conditions noted are these: calculated with CNS from crystal structure; for Buried surface area, +1: +1 residue; for Buried surface area, +1 / Buried surface area, +4 / Buried surface area, +5: side chain atoms only; for Buried surface area, +4: +4 residue; for Buried surface area, +5: +5 residue; for Buried surface area, Total: AR LBD-peptide complex, DHT-bound. Here is the method:
as §1
Purified, concentrated AR LBD was combined with 3x to 6x molar excess of peptide and incubated 1 h at room temperature before crystallization trials. Complexes were crystallized using the hanging drop vapor diffusion method. Protein–peptide solution was combined in a 1:1 ratio with a well solution consisting of 0.6–0.8 M sodium citrate and 100 mM Tris or HEPES buffer (pH 7–8). Crystals typically appeared after 1–2 d, with maximal size attained within 2 wk. For data collection, crystals were swiped into a cryo-protectant solution consisting of well solution plus 10% glycerol before flash freezing in liquid nitrogen. The addition of ethylene glycol to a well concentration of 10%–20% was later found to both improve crystal quality and enable the freezing of crystals directly out of the drop.
Datasets were collected at 100K at the Advanced Light Source (Lawrence Berkeley Laboratory, Berkeley, California, United States), beamline 8.3.1, with either a ADSC Quantum 315 or Quantum 210 CCD detector. Data were processed using Denzo and Scalepack ([Otwinowski and Minor 1997]). Molecular replacement searches were performed with rotation and translation functions from CNS ([Brunger et al. 1998]). Initial searches for AR–FxxLF were performed using the structure of AR–R1881 (PDB: 1E3G) with R1881 omitted from the search model. Subsequent searches for all other complexes were performed using the refined LBD structure from the AR–FxxLF complex. To minimize the possibility of model bias, FxxLF peptide and DHT were omitted from all molecular replacement searches. Protein models were built by iterative rounds of simulated annealing, conjugate gradient minimization, and individual B-factor refinement in CNS followed by manual rebuilding in Quanta 2000 (Accelrys, San Diego, California, United States) using σA-weighted 2F o − F c, F o − F c, and simulated annealing composite omit maps. Superposition of structures was performed with LSQMAN ([Kleywegt 1996]). Buried surface area calculations were performed with CNS. All figures were generated with PyMOL ([DeLano 2002]). Coordinates and structure factors for all complexes have been deposited in the Protein Data Bank.

The target in assay [3] is T1, AR LBD. Briefly: FRET-based assay of interaction between synthetic peptide and purified AR LBD. The class given is binding, chimp (100% identity to the human form in protein sequence). To be noted: in vitro; excitation 320 nm, emission 625 and 665 nm; streptavidin-cryptate / streptavidin-XL665; unpublished data. Here is the method:
Synthetic peptides corresponding to the deduced amino acid sequences from receptor-specific phage were tested for their ability to interact with purified AR LBD using a FRET–based assay format. […] Flourophor conjugates were prepared by incubating either biotinylated peptides with streptavidin-cryptate (Cis Bio International, Bagnols Sur Ceze Cedex, France), or biotinylated AR LBD with streptavidin-XL665 (Cis Bio). Interaction between peptide and AR LBD was monitored by the ratio of energy transfer by excitation at 320 nm and emission at 625 nm and 665 nm.

Consider `CC(C)C[C@H](NC(=O)[C@H](CO)NC(=O)[C@H](CCC(=O)O)NC(=O)[C@H](Cc1ccccc1)NC(=O)[C@H](CCCNC(=N)N)NC(=O)[C@H](CO)NC(=O)[C@@H](N)CO)C(=O)N[C@@H](Cc1ccccc1)C(=O)N[C@@H](C)C(=O)NCC(=O)N[C@@H](CCC(=O)O)C(=O)N[C@@H](CCCCN)C(=O)N[C@@H](CCC(=O)O)C(=O)N[C@@H](CO)C(=O)N[C@@H](CCCNC(=N)N)C(=O)N[C@@H](CO)C(=O)NCC(=O)N[C@@H](CO)C(=O)NCC(=O)N[C@@H](CCCCNC(=O)CCCC[C@@H]1SC[C@@H]2NC(=O)N[C@@H]21)C(=O)O` [FxxLF] (H-SSRFESLFAGEKESRSGSGK(Biotin)-OH; N-terminus and C-terminus assumed), for which, in assay [1], the “ka1 × 10^-4” value came out at 5.2±1.0 M^-2s^-1, the Kd2 is 2.6±1.0, the “kd1 × 10^2” value amounted to 2.3±0.03 M^-1s^-1 and the “ka2 × 10^3” value is on record as 1.3±0.5 M^--1s^-1. Moreover, in assay [1], the “kd2 × 10^3” value is 3.5±0.06 M^-1s^-1. Besides, in assay [2], the “Buried surface area, +1” value is reported as 305 Å^2; the “Buried surface area, +4” value is reported as 189 Å^2; the “Buried surface area, +5” value is 276 Å^2; the “Buried surface area, Total” value is 1012 Å^2.
In the case of `CC(C)C[C@H](NC(=O)[C@H](C)NC(=O)[C@H](C)NC(=O)[C@H](Cc1ccccc1)NC(=O)[C@H](CCCCN)NC(=O)[C@H](CO)NC(=O)[C@@H](N)CO)C(=O)N[C@@H](Cc1c[nH]c2ccccc12)C(=O)N[C@@H](CC(=O)O)C(=O)N1CCC[C@H]1C(=O)N1CCC[C@H]1C(=O)N[C@@H](CCCCN)C(=O)N[C@@H](CC(C)C)C(=O)N[C@@H](CO)C(=O)N[C@@H](CCCNC(=N)N)C(=O)N[C@@H](CO)C(=O)NCC(=O)N[C@@H](CO)C(=O)NCC(=O)N[C@@H](CCCCNC(=O)CCCC[C@@H]1SC[C@@H]2NC(=O)N[C@@H]21)C(=O)O` [FxxLW] (H-SSKFAALWDPPKLSRSGSGK(Biotin)-OH; N-terminus and C-terminus assumed), in assay [1], the “ka1 × 10^-4” value was determined as 5.9±1.5 M^-2s^-1, the Kd2 was 1.6±0.2, the “kd1 × 10^2” value was found to be 3.4±0.04 M^-1s^-1 and the “ka2 × 10^3” value was 3.6±0.3 M^--1s^-1. The “kd2 × 10^3” value in assay [1] is 5.6±0.05 M^-1s^-1. Further, in assay [1] (comparison with FxxLF), the “affinity relative to FxxLF” value is listed as “slightly better than FxxLF”. Besides, in assay [2], the “Buried surface area, +1” value is reported as 315 Å^2; the “Buried surface area, +4” value is 187 Å^2; the “Buried surface area, +5” value is listed as 313 Å^2; the “Buried surface area, Total” value is given as 937 Å^2.
As to `CC(C)C[C@H](NC(=O)CNC(=O)[C@H](CCCNC(=N)N)NC(=O)[C@H](CO)NC(=O)[C@@H](N)CO)C(=O)N[C@@H](CC(C)C)C(=O)N[C@@H](Cc1c[nH]c2ccccc12)C(=O)N[C@@H](CC(=O)O)C(=O)N[C@@H](CC(C)C)C(=O)N[C@@H](CC(C)C)C(=O)N[C@H](C(=O)N[C@@H](CCCCN)C(=O)N[C@@H](CC(=O)O)C(=O)N[C@@H](CO)C(=O)N[C@@H](CCCNC(=N)N)C(=O)N[C@@H](CO)C(=O)NCC(=O)N[C@@H](CO)C(=O)NCC(=O)N[C@@H](CCCCNC(=O)CCCC[C@@H]1SC[C@@H]2NC(=O)N[C@@H]21)C(=O)O)[C@@H](C)O` [LxxLL] (H-SSRGLLWDLLTKDSRSGSGK(Biotin)-OH; N-terminus and C-terminus assumed), in assay [1], the “affinity for AR” value is “moderate affinity”, the “ka1 × 10^-4” value is on record as 6.2±4.3 M^-2s^-1, the Kd2 is 1.6±0.2 and the “kd1 × 10^2” value came out at 7.0±0.17 M^-1s^-1. Besides, in assay [1], the “ka2 × 10^3” value was 3.2±0.4 M^--1s^-1 and the “kd2 × 10^3” value is reported as 5.0±0.04 M^-1s^-1. In assay [1] (Kd ratio relative to FxxLF), the “fold weaker affinity than FxxLF” value was “less than 2 -fold”. Besides, the “affinity relative to tightest binding p160-derived LxxLL motif, NR box 3 of TIF2” value in assay [1] (compared with earlier value for TIF2 NR box 3 (He and Wilson 2003)) is “more than three times stronger”. The “binding to AR in FRET-based screens” value in assay [3] was “demonstrated to bind AR in FRET-based screens in vitro”. For the same compound, in assay [2], the “Buried surface area, +1” value is listed as 271 Å^2; the “Buried surface area, +4” value was 193 Å^2; the “Buried surface area, +5” value is reported as 241 Å^2; the “Buried surface area, Total” value is given as 984 Å^2.

The values above are taken from paper PMC509409, “Recognition and Accommodation at the Androgen Receptor Coactivator Binding Interface” (PLoS Biology, 2004).
